The text below walks through data of patent US8822441B2, “Ecdysterone synthesis derivative, preparation method and use thereof” (priority 2010, dated 2014).

Where a name gives a salt, the structure may show the parent alone.

The test system of data set [1] is β-TC3 cells. To be noted: cited from earlier work.
The test system of data set [2] is InsR protein. The note with it: 1×10^−5 mol/L; cited from earlier work.
The test system of data set [3] is PI3K and GLUT-4 proteins. The note with it: 1×10^−5M, P<0.05; cited from earlier work.
Data set [4] relates to normal mice. Nature of the data set: level of blood glucose in normal mice. It counts as in vivo, Kunming mouse. To be noted: for Blood glucose 3 d after dosing: 5th administration; for Blood glucose 3 d after dosing / Blood glucose 10 d after dosing: fasting 2 h, X ± S; for Blood glucose 10 d after dosing: 19th administration; for effects in lowering glucose in normal mice: 5 mg/kg. The method, then: 40 male mice with a body weight of 21±1.8 g (Kunming mouse: SPF grade, male, provided by laboratory animal centre of Sichuan Academy of Chinese Medicine Sciences) were grouped into 4 groups randomly, which are control group, 5 mg/kg of the compound of formula I group, 5 mg/kg of the sodium salt of the compound of formula I group, and 25 mg/kg of Glibenclamide (manufactured by Tianjin Pacific Chemical & Pharmaceutical Co., LTD) group. For the control group, distilled water was given, while for other groups, corresponding medicaments were given. The medicament was intragastrically administered in 0.2 ml/10 g of administration volume twice daily. The administration was continued for 19 times. On the 5th time and 19th time and after thoroughly fasting for 2 h, the blood glucose value for each mouse was tested by a Blood Glucose Meter, and the results were recorded as follows: […]

Data set [5] has as its system HepG2 cells. Nature of the data set: in vitro glucose consumption in HepG2 cells (glucose oxidase method). It counts as cell-based. The note with it: for Glucose consumption / Glucose consumption increased: HepG2 cells; for Glucose consumption: 24 h, x ± s, n = 8; for Glucose consumption increased: versus blank control group. The protocol: HepG2 cells with good growth state were selected, and were digested with trypsinase and EDTA (ethylene diamine tetraacetic acid) digestive juice. After digestion was complete, the resulting mixture was formulated with DMEM (Dulbecco's Modified Eagle Medium) having 10% Fetal bovine serum (FBS) into single cell suspension. The cells were seeded into 96 well plates, with 1*10^4 cells per well. Once the cell confluence reached 50%, the medium was changed to high glucose DMEM without serum, starvation cultured for 12 h. The cell supernatant was pipetted, and fresh high glucose DMEM with or without medications was added. The cells were divided into a blank control group, a 20-hydroxy-β-ecdysterone group, and a compound of formula I group. After culturing for 24 h, each group was tested for the change of glucose in the medium by using the glucose oxidase method.

A short description of data set [6]: dissolution experiment (solubility in water). The class given is physicochemical. To be noted: for amount of water necessarily for completely dissolving this product (1 g): 1 g of product; for solubility in water relative to 20-hydroxy-β-ecdysterone: fold of that of 20-hydroxy-β-ecdysterone.
Setting [7] is: 25 mg/kg intragastrically twice daily, *P<0.05 vs control.
Where [8] appears, read: 5 mg/kg intragastrically twice daily.
Setting [9] is: 5 mg/kg intragastrically twice daily, *P<0.05 vs control.

Turning to `CC(C)(O)CC[C@@H](O)[C@](C)(O)[C@H]1CC[C@@]2(O)C3=CC(=O)[C@@H]4C[C@@H](O)[C@@H](O)C[C@]4(C)[C@H]3CC[C@]12C` [ecdysterone], in data set [1], the “stimulating insulin secretion of β-TC3 cells” value is recorded as “does not have the action of stimulating insulin secretion”. The “expression of InsR protein in IR HepG2 cells” value in data set [2] is given as “significantly increases”. Further, the “expression of PI3K and GLUT-4 proteins in insulin resistant HepG2 cells” value in data set [3] is “increases”.
Consider `COc1ccc(Cl)cc1C(=O)NCCc1ccc(S(=O)(=O)NC(=O)NC2CCCCC2)cc1` [Glibenclamide, reference compound], for which, in data set [4] (setting [7]), the “Blood glucose 3 d after dosing” value was 9.3 ± 0.9* mmol/L and the “Blood glucose 10 d after dosing” value was 9.9 ± 0.9* mmol/L.
Turning to `CC(C)(O)CC[C@@H](O)[C@](C)(O)[C@H]1CC[C@@]2(O)C3=CC(=O)[C@@H]4C[C@@H](O)[C@@H](O)C[C@]4(C)[C@H]3CC[C@]12C` [20-hydroxy-β-ecdysterone, reference compound], the Glucose consumption in data set [5] (2 × 10^−7 M) was found to be 1.45 ± 0.28 mM; in data set [5] (2 × 10^−8 M), 1.38 ± 0.11 mM; in data set [5] (2 × 10^−9 M), 1.30 ± 0.23 mM. Moreover, the results for the Glucose consumption increased in data set [5] (2 × 10^−7 M) and in data set [5] (2 × 10^−8 M) were 0.13 mM and 0.06 mM, respectively. Also, in data set [5] (concentration 2×10^−7˜2×10^−8 M), the “increase of the glucose consumption in HepG2 cells” value is reported as “below 15%”. For the same compound, the “effect for lowering glucose in HepG2 cells” value in data set [5] (concentration 2×10^−9 M) is listed as “no effect”.
For the compound `CC(C)(O)CC[C@H]1OP(=O)(O)O[C@]1(C)[C@H]1CC[C@@]2(O)C3=CC(=O)[C@@H]4C[C@@H](O)[C@@H](O)C[C@]4(C)C3CC[C@]12C` (some centres unmarked) [sodium salt of the compound of formula I], in data set [6], the “amount of water necessarily for completely dissolving this product (1 g)” value is 2.5 mL and the “solubility in water relative to 20-hydroxy-β-ecdysterone” value stood at 50 fold. In addition, in data set [4], the “effects in lowering glucose in normal mice” value is recorded as “have the effects in lowering glucose”. In data set [4] (setting [8]), the “Blood glucose 3 d after dosing” value is on record as 10.2 ± 1.9 mmol/L. The “Blood glucose 10 d after dosing” value in data set [4] (setting [9]) was 9.8 ± 1.4* mmol/L.
On to `CC(C)(O)CC[C@H]1OP(=O)(O)O[C@]1(C)[C@H]1CC[C@@]2(O)C3=CC(=O)[C@@H]4C[C@@H](O)[C@@H](O)C[C@]4(C)C3CC[C@]12C` (some centres unmarked) [the compound of formula I], for which, in data set [5] (2 × 10^−7 M), the Glucose consumption turned out to be 6.96 ± 0.23 mM and the Glucose consumption increased is 5.64 mM. Besides, in data set [5] (2 × 10^−8 M), the Glucose consumption is recorded as 6.51 ± 0.12 mM and the Glucose consumption increased is reported as 5.19 mM. In data set [5] (2 × 10^−9 M), this compound gave a Glucose consumption of 6.46 ± 0.19 mM and a Glucose consumption increased of 5.14 mM. Moreover, in data set [5] (concentration range 2×10^−7˜2×10^−9 M), the “increase of the glucose consumption in HepG2 cells” value is given as “above 500%”. Further, in data set [6], the “amount of water necessarily for completely dissolving this product (1 g)” value turned out to be 12 mL and the “solubility in water relative to 20-hydroxy-β-ecdysterone” value is 10 fold. Besides, the “effects in lowering glucose in normal mice” value in data set [4] is reported as “have the effects in lowering glucose”. In addition, in data set [4] (setting [8]), the “Blood glucose 3 d after dosing” value was 10.4 ± 1.7 mmol/L. Further, in data set [4] (setting [9]), the “Blood glucose 10 d after dosing” value is recorded as 9.1 ± 2.3* mmol/L.
